Results: US8673929B2, “4,6-di- and 2,4,6-trisubstituted quinazoline derivatives and pharmaceutical compositions useful for treating viral infections” (priority 2006, dated 2014)

Key:
[1] = CC50 assay in the anti-HCV replicon assay (CellTiter-Glo); format: cell-based, human; settings: human, Huh-7 hepatoma cells harbouring an HCV replicon; Huh-7 HCV replicon cells, 3 days incubation, CellTiter-Glo luminescence
Summary of the method: (§1)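 Huh-7 cells harbouring an HCV replicon (6000/well) incubated 3 days at 37° C with 3-fold serially diluted compound (0.5% DMSO final where used). EC50 from luciferase luminescence of lysed cells; CC50 from CellTiter-Glo luminescence in parallel plates.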

HCV replicon = experiment: Anti-HCV replicon assay, EC50 (luciferase readout); format: cell-based; settings: Hepatitis C virus, 72 h; Huh-7 HCV replicon cells, 3 days incubation, luciferase luminescence
Summary of the method: as §1

Nc1nc(OCC2CCC2)c2cc(-c3ccsc3)ccc2n1 [Example 117, 4-Cyclobutylmethoxy-6-thiophen-3-yl-quinazolin-2-ylamine]
CC50 at 3 days [1]: 10 to 20 µM
EC50 (HCV replicon): 1 to 10 µM

Nc1nc(OCC2CCC2)c2cc(-c3cccnc3)ccc2n1 [Example 118, 4-Cyclobutylmethoxy-6-pyridin-3-yl-quinazolin-2-ylamine]
CC50 at 3 days [1]: 10 to 20 µM
EC50 (HCV replicon): 0.3 to 1 µM

N#Cc1cccc(-c2ccc3nc(N)nc(OCC4CCC4)c3c2)c1 [Example 119, 3-(2-Amino-4-cyclobutylmethoxy-quinazolin-6-yl)-benzonitrile]
CC50 at 3 days [1]: 10 to 20 µM
EC50 (HCV replicon): 1 to 10 µM

Nc1nc(OCC2CCC2)c2cc(-c3cn[nH]c3)ccc2n1 [Example 120, 4-Cyclobutylmethoxy-6-(2H-pyrazol-4-yl)-quinazolin-2-ylamine]
CC50 at 3 days [1]: 10 to 20 µM
EC50 (HCV replicon): 0.3 to 1 µM

Nc1nc(OCC2CCC2)c2cc(-c3ccc(F)c(F)c3F)ccc2n1 [Example 121, 4-Cyclobutylmethoxy-6-(2,3,4-trifluoro-phenyl)-quinazolin-2-ylamine]
CC50 at 3 days [1]: > 20 µM
EC50 (HCV replicon): 1 to 10 µM

N#Cc1ccc(-c2ccc3nc(N)nc(OCC4CCC4)c3c2)cc1 [Example 122, 4-(2-Amino-4-cyclobutylmethoxy-quinazolin-6-yl)-benzonitrile]
CC50 at 3 days [1]: > 20 µM
EC50 (HCV replicon): 1 to 10 µM

Nc1nc(OCC2CCC2)c2cc(-c3ccc(C(F)(F)F)cc3Cl)ccc2n1 [Example 124]
CC50 at 3 days [1]: > 20 µM
EC50 (HCV replicon): 1 to 10 µM

CCOc1nc(N)nc2ccc(-c3ccc(C(=O)N(C)C)cc3)cc12 [Example 125, 4-(2-Amino-4-ethoxy-quinazolin-6-yl)-N,N-dimethyl-benzamide]
CC50 at 3 days [1]: > 20 µM
EC50 (HCV replicon): 0.3 to 1 µM

CCOc1nc(N)nc2ccc(-c3ccc(C(=O)N4CCCC4)cc3)cc12 [Example 126, [4-(2-Amino-4-ethoxy-quinazolin-6-yl)-phenyl]-pyrrolidin-1-yl-methanone]
CC50 at 3 days [1]: > 20 µM
EC50 (HCV replicon): 1 to 10 µM

CC(C)Oc1nc(N)nc2ccc(-c3ccc(C(=O)N(C)C)cc3)cc12 [Example 127, 4-(2-Amino-4-isopropoxy-quinazolin-6-yl)-N,N-dimethyl-benzamide]
CC50 at 3 days [1]: > 20 µM
EC50 (HCV replicon): 1 to 10 µM

CC(C)Oc1nc(N)nc2ccc(-c3ccc(C(=O)N4CCOCC4)cc3)cc12 [Example 128, [4-(2-Amino-4-isopropoxy-quinazolin-6-yl)-phenyl]-morpholin-4-yl-methanone]
CC50 at 3 days [1]: > 20 µM
EC50 (HCV replicon): 1 to 10 µM

CCOc1nc(N)nc2ccc(-c3ccc(C(=O)NCc4ccccc4)cc3)cc12 [Example 149, 4-(2-Amino-4-ethoxy-quinazolin-6-yl)-N-benzyl-benzamide]
CC50 at 3 days [1]: > 20 µM
EC50 (HCV replicon): 1 to 10 µM

CCOc1nc(N)nc2ccc(-c3ccc(C(=O)NCC(C)C)cc3)cc12 [Example 150, 4-(2-Amino-4-ethoxy-quinazolin-6-yl)-N-isobutyl-benzamide]
CC50 at 3 days [1]: 10 to 20 µM
EC50 (HCV replicon): 1 to 10 µM

CCOc1nc(N)nc2ccc(-c3ccc(C(=O)NC4CCCCC4)cc3)cc12 [Example 151, 4-(2-Amino-4-ethoxy-quinazolin-6-yl)-N-cyclohexyl-benzamide]
CC50 at 3 days [1]: 10 to 20 µM
EC50 (HCV replicon): 1 to 10 µM

CCCCNC(=O)c1ccc(-c2ccc3nc(N)nc(OCC)c3c2)cc1 [Example 152, 4-(2-Amino-4-ethoxy-quinazolin-6-yl)-N-butyl-benzamide]
CC50 at 3 days [1]: > 20 µM
EC50 (HCV replicon): 0.3 to 1 µM

CCOc1nc(N)nc2ccc(-c3ccc(C(=O)NC(C)(C)C)cc3)cc12 [Example 153, 4-(2-Amino-4-ethoxy-quinazolin-6-yl)-N-tert-butyl-benzamide]
CC50 at 3 days [1]: 10 to 20 µM
EC50 (HCV replicon): 0.3 to 1 µM

CCOc1nc(N)nc2ccc(-c3ccc(C(=O)NC4CCCC4)cc3)cc12 [Example 154, 4-(2-Amino-4-ethoxy-quinazolin-6-yl)-N-cyclopentyl-benzamide]
CC50 at 3 days [1]: 10 to 20 µM
EC50 (HCV replicon): 0.3 to 1 µM

CCOc1nc(N)nc2ccc(-c3ccc(C(=O)NC(C)C)cc3)cc12 [Example 155, 4-(2-Amino-4-ethoxy-quinazolin-6-yl)-N-isopropyl-benzamide]
CC50 at 3 days [1]: 10 to 20 µM
EC50 (HCV replicon): 0.3 to 1 µM

CCOc1nc(N)nc2ccc(-c3ccc(C(=O)NOC)cc3)cc12 [Example 156, 4-(2-Amino-4-ethoxy-quinazolin-6-yl)-N-methoxy-benzamide]
CC50 at 3 days [1]: > 20 µM
EC50 (HCV replicon): 0.3 to 1 µM

CCOc1nc(N)nc2ccc(-c3ccc(C(=O)NCc4ccco4)cc3)cc12 [Example 157, 4-(2-Amino-4-ethoxy-quinazolin-6-yl)-N-furan-2-ylmethyl-benzamide]
CC50 at 3 days [1]: > 20 µM
EC50 (HCV replicon): 1 to 10 µM

CCOc1nc(N)nc2ccc(-c3ccc(C(=O)N4CCSC4)cc3)cc12 [Example 158, [4-(2-Amino-4-ethoxy-quinazolin-6-yl)-phenyl]-thiazolidin-3-yl-methanone]
CC50 at 3 days [1]: > 20 µM
EC50 (HCV replicon): 1 to 10 µM

CCOc1nc(N)nc2ccc(-c3ccc(C(=O)NCCN(C)C)cc3)cc12 [Example 159]
CC50 at 3 days [1]: < 10 µM
EC50 (HCV replicon): < 0.3 µM

CCOc1nc(N)nc2ccc(-c3ccc(C(=O)Nc4ccccn4)cc3)cc12 [Example 160, 4-(2-Amino-4-ethoxy-quinazolin-6-yl)-N-pyridin-2-yl-benzamide]
CC50 at 3 days [1]: > 20 µM
EC50 (HCV replicon): 1 to 10 µM

CCOc1nc(N)nc2ccc(-c3ccc(C(=O)Nc4ccc(F)cc4)cc3)cc12 [Example 161, 4-(2-Amino-4-ethoxy-quinazolin-6-yl)-N-(4-fluoro-phenyl)-benzamide]
CC50 at 3 days [1]: < 10 µM
EC50 (HCV replicon): 0.3 to 1 µM

CCOc1nc(N)nc2ccc(-c3ccc(C(=O)N4CCSCC4)cc3)cc12 [Example 162, [4-(2-Amino-4-ethoxy-quinazolin-6-yl)-phenyl]-thiomorpholin-4-yl-methanone]
CC50 at 3 days [1]: > 20 µM
EC50 (HCV replicon): 1 to 10 µM

CCOc1nc(N)nc2ccc(-c3ccc(C(=O)NC4=NCCS4)cc3)cc12 [Example 163, 4-(2-Amino-4-ethoxy-quinazolin-6-yl)-N-(4,5-dihydro-thiazol-2-yl)-benzamide]
CC50 at 3 days [1]: > 20 µM
EC50 (HCV replicon): 1 to 10 µM

CCOc1nc(N)nc2ccc(-c3ccc(C(=O)NC)c(Cl)c3)cc12 [Example 164, 4-(2-Amino-4-ethoxy-quinazolin-6-yl)-2-chloro-N-methyl-benzamide]
CC50 at 3 days [1]: > 20 µM
EC50 (HCV replicon): 1 to 10 µM

CCOc1nc(N)nc2ccc(-c3ccc(C(=O)NC4CC4)c(Cl)c3)cc12 [Example 165, 4-(2-Amino-4-ethoxy-quinazolin-6-yl)-2-chloro-N-cyclopropyl-benzamide]
CC50 at 3 days [1]: > 20 µM
EC50 (HCV replicon): 1 to 10 µM

CCOc1nc(N)nc2ccc(-c3cccc(O)c3)cc12 [Example 166, 3-(2-Amino-4-ethoxy-quinazolin-6-yl)-phenol]
CC50 at 3 days [1]: 10 to 20 µM
EC50 (HCV replicon): 1 to 10 µM

CCOc1nc(N)nc2ccc(-c3ccc(C(=O)NC4CC4)cc3)cc12 [Example 167, 4-(2-Amino-4-ethoxy-quinazolin-6-yl)-N-cyclopropyl-benzamide]
CC50 at 3 days [1]: > 20 µM
EC50 (HCV replicon): < 0.3 µM

CCOc1nc(N)nc2ccc(-c3cccc(C(=O)NC)c3)cc12 [Example 168, 3-(2-Amino-4-ethoxy-quinazolin-6-yl)-N-methyl-benzamide]
CC50 at 3 days [1]: > 20 µM
EC50 (HCV replicon): 1 to 10 µM

CC(C)Oc1nc(N)nc2ccc(-c3ccc(C(=O)N4CCCCC4)cc3)cc12 [Example 169, [4-(2-Amino-4-isopropoxy-quinazolin-6-yl)-phenyl]-piperidin-1-yl-methanone]
CC50 at 3 days [1]: > 20 µM
EC50 (HCV replicon): 1 to 10 µM
